Results as given in the supplement of paper PMC10307832.

Tests used:
Assay in all cases: relative viability (nuclei count vs DMSO), 5 days (fraction); higher = more cells survive
[1] = compound: C1=CC2=NC=CN=C2C=C1/C=C/3\C(=O)NC(=O)S3 + Nc1ncn([C@H]2C[C@H](O)[C@@H](CO)O2)c(=O)n1 [Decitabine] (partner 2 µM)
In short: (§1)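 One day after seeding in 1536-well plates, lung cancer cell lines were dosed by pin tool. Dosing was either single-drug or a fixed anchor-drug dose plus five library-drug doses (not always all listed) in √10 steps. After 5 days, nuclei were stained in one fix-and-stain step and counted on 4× images, and relative viability is the nuclei count of treated wells over that of vehicle wells, given as the median of duplicate plates.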

BGJ398 + AZD7762 = compound: CCN1CCN(c2ccc(Nc3cc(N(C)C(=O)Nc4c(Cl)c(OC)cc(OC)c4Cl)ncn3)cc2)CC1 [BGJ398] + NC(=O)Nc1cc(-c2cccc(F)c2)sc1C(=O)N[C@H]1CCCNC1 [AZD7762] (partner 0.2 µM)
In short: as §1

BGJ398 + Trametinib = compound: CCN1CCN(c2ccc(Nc3cc(N(C)C(=O)Nc4c(Cl)c(OC)cc(OC)c4Cl)ncn3)cc2)CC1 [BGJ398] + CC(=O)Nc1cccc(-n2c(=O)n(C3CC3)c(=O)c3c(Nc4ccc(I)cc4F)n(C)c(=O)c(C)c32)c1 [Trametinib] (partner 0.02 µM)
In short: as §1

[2] = compound: C1=CC2=NC=CN=C2C=C1/C=C/3\C(=O)NC(=O)S3 + CS(=O)(=O)N1CCN(Cc2cc3nc(-c4cccc5[nH]ncc45)nc(N4CCOCC4)c3s2)CC1 [Pictilisib] (partner 1 µM)
In short: as §1

Cell Line	relative viability ([1]; first compound 0.02 µM)	relative viability ([1]; first compound 0.2 µM)	relative viability ([1]; first compound 0.6325 µM)	relative viability ([1]; first compound 2 µM)	relative viability (BGJ398 + AZD7762; first compound 0.01 µM)	relative viability (BGJ398 + AZD7762; first compound 0.03162 µM)	relative viability (BGJ398 + AZD7762; first compound 0.1 µM)	relative viability (BGJ398 + AZD7762; first compound 0.3162 µM)	relative viability (BGJ398 + AZD7762; first compound 1 µM)	relative viability (BGJ398 + Trametinib; first compound 0.01 µM)	relative viability (BGJ398 + Trametinib; first compound 0.03162 µM)	relative viability (BGJ398 + Trametinib; first compound 0.1 µM)	relative viability (BGJ398 + Trametinib; first compound 0.3162 µM)	relative viability (BGJ398 + Trametinib; first compound 1 µM)	relative viability ([2]; first compound 0.02 µM)	relative viability ([2]; first compound 0.06325 µM)	relative viability ([2]; first compound 0.2 µM)	relative viability ([2]; first compound 0.6325 µM)	relative viability ([2]; first compound 2 µM)	relative viability ([1]; first compound 0.06325 µM)
HCC-366	0.284	0.386	0.306	0.276	0.235	0.301	0.281	0.276	0.252	0.309	0.375	0.387	0.311	0.325	0.151	0.0838	0.14	0.11	0.117	
HCC-827	0.259	0.345	0.392	0.33	0.26		0.212	0.121	0.256	0.482		0.542	0.399	0.623	1.13	0.938	0.996	0.845	0.969	0.343
HOP-62	0.188	0.215	0.191	0.254	0.651	0.703	0.829	0.601	0.916	0.395	0.364	0.359	0.291	0.288	0.409	0.92	0.695	0.861	0.662	0.278
IA-LM																0.524	0.308	0.333	0.286	
LC-2-ad	0.781	0.84	0.86	0.727	0.886	0.802	0.852	0.893	0.957	0.912	0.935	0.892	0.873	0.985	0.465	0.533	0.478	0.411	0.335	0.862
LCLC-97TM1	0.293	0.229	0.247	0.221	0.251	0.217	0.225	0.208	0.249	0.185	0.205	0.215	0.21	0.218	0.186	0.185	0.21	0.141	0.178	0.244
NCI-H520	0.481	0.482	0.436	0.562						0.586	0.548	0.351	0.189	0.205	0.306	0.356	0.32	0.242	0.246	0.545
NCI-H522	0.643	0.594	0.74	0.683	0.864	0.686	0.812	0.836	0.853	0.743	0.797	0.709	0.644	0.736						0.706
NCI-H661	0.555	0.574	0.527	0.575						0.479	0.599	0.642	0.516	0.63	0.392	0.436	0.513	0.378	0.329	0.571
NCI-H1299															0.753	0.925	0.931	0.762	0.85	
NCI-H1563															0.663	0.659	0.691	0.635	0.634	
NCI-H1648	0.33	0.57		0.539	0.873		0.759	0.55	0.387	0.411		0.474	0.393	0.417						0.549
NCI-H1650	0.425	0.47	0.36	0.347						0.503	0.568	0.471	0.304	0.25	0.562	0.531	0.594	0.553	0.656	0.375
NCI-H1703					0.117	0.136	0.111	0.122	0.123						0.241	0.318	0.187	0.243	0.232	
NCI-H2009	0.353	0.358	0.381	0.352						0.261	0.265	0.219	0.23	0.244	0.859	0.891	0.964	0.712	0.744	0.388
NCI-H2023	0.205	0.205	0.195	0.222						0.615	0.566	0.473	0.522	0.541	0.236	0.27	0.26	0.223	0.16	0.237
NCI-H2228										0.42	0.694	0.503	0.348	0.419	0.384	0.36	0.441	0.274	0.22	
NCI-H2342	0.726	0.805	0.69	0.716	0.513	0.565	0.542	0.496	0.437	1.04	0.906	0.893	1.03	0.978						0.664
SK-LU-1	0.597	0.74	0.639	0.596						0.446	0.669	0.454	0.52	0.229	0.703	0.695	0.583	0.577	0.506	0.712
SK-MES-1	0.353	0.437	0.357	0.331						0.525	0.591	0.534	0.574	0.63	0.385	0.391	0.375	0.353	0.335	0.403
SW 900	0.418	0.515		0.433	0.757	0.514	0.572	0.36	0.532	0.723	0.679	0.655	0.735	0.568						0.356
SW 1573	0.506	0.603	0.544	0.367						0.477	0.587	0.455	0.448	0.47	0.525	0.511	0.524	0.555	0.441	0.65
